Laboratory results reported in US20190322676A1, “CERAMIDE GALACTOSYLTRANSFERASE INHIBITORS FOR THE TREATMENT OF DISEASE” (BioMarin Pharmaceutical Inc., priority 2016, published 2019).
pIC50: −log10 of the molar value. Counter-ions that a name gives are not always drawn.

These compounds were tested against T1, human CGT (ceramide galactosyltransferase), CHO/CGT lysate (Homo sapiens, UniProt Q16880) (assay: CGT enzyme assay, RapidFire/MS/MS readout (Table 1 ranges with one asterisk *)). Conditions: RapidFire method (range with one asterisk *).
T1 construct: Full-length human CGT cDNA was cloned into the BamH1/Xho1 site of pcDNA3.1 (+); expressed in transfected cells; host or cells: Chinese hamster ovary (CHO) cells; lysate prepared with M-PER
T1 sequence (Q16880 21-541): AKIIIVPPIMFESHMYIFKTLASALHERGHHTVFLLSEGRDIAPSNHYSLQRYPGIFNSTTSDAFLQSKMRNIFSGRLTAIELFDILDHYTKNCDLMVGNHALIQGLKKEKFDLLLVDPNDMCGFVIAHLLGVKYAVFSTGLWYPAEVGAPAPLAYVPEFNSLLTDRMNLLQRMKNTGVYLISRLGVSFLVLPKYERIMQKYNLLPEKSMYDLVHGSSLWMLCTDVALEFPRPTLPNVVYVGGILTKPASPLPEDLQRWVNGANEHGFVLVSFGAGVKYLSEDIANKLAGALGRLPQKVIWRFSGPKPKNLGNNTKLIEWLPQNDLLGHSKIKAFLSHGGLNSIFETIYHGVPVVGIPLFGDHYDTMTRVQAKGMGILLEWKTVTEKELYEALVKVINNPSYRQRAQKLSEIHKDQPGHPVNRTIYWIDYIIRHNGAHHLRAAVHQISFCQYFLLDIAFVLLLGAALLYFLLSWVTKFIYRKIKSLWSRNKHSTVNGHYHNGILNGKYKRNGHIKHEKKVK
Assay type: biochemical
Protocol: Full-length human CGT cDNA was cloned into the BamH1/Xho1 site of pcDNA3.1 (+) mammalian expression vector (V90-20, Invitrogen, Carlsbad, Calif.) and the plasmid was transfected into Chinese hamster ovary (CHO) cells. Lysate was prepared using M-PER (Mammalian Protein Extraction Reagent, ThermoFisher Scientific, Grand Island, N.Y.) in the presence of a protease inhibitor cocktail (P8340, Sigma, Saint Louis, Mo.). Each 100 mm dish (100% confluent, approximately 1×10^7 cells) was lysed with 250 μL of M-PER containing protease inhibitors. Protein concentration was determined using a Pierce BCA protein assay kit (ThermoFisher Scientific). Four micrograms of CHO/CGT lysate was incubated with various concentrations of a compound (0.001 μM-50 μM) in 10 mM HEPES (pH 7.2) containing 35 μM dioleoylphosphatidylcholine, 5 mM MgCl2, 5 mM MnCl2, 1% BSA, 15 mM KCl, 1 mM EGTA, 8 mM CHAPS, 10 μM C6-NBD-dihydro-ceramide and 17.5 μM UDP-galactose in a final reaction volume of 20 μL at 37° C. for 1 hour. The final concentration of DMSO was 0.5% in both compound-treated and mock-treated samples. Tween 80 (0.01%) was optionally added to the reaction mixture to help solubilize the compounds. Each individual reaction was diluted with 80 μL of methanol:acetronitrile (1:3) containing 5 μM N-docdecanoyl-NBD-galactosylceramide (internal standard) to stop the reaction. 200 μL H2O:acetonitile (1:1) was added to precipitate the protein. After sufficient mixing, the plates were centrifuged at 2469 g for 38 minutes, 200 μL of supernatant was transferred to a LC/MS 96-deep well plate and a second spin was performed at 2469 g for 10 minutes. The final supernatant was injected in triplicate for RapidFire/MS/MS analysis.
Quantitative Analysis Using the RapidFire/MS/MS Method:
The quantitative analysis of C6-NBD-dihydro-ceramide and C6-NBD-dihydro-galactosylceramide was performed on a Rapid Fire 360 high-throughput mass spectrometry system (Agilent Technologies, Palo Alto, Calif.) coupled with a API4000^+ triple quadrupole mass spectrometer (Applied Biosystems, Concord, Ontario, Canada). RapidFire software packages, including RapidFire Control panel, RapidFire UI and RapidFire Integrator (Agilent Technologies), were used to control the RapidFire instrument and to process data. Analyst 1.6.2 software packages (Applied Biosystems) were used to control the MS system and acquire MS data. […] of sample was loaded on a micro-scale C4 solid-phase extraction (SPE) cartridge (Agilent Technologies) and salts were removed using water supplemented with 0.1% formic acid at the flow rate of 1.5 mL/min for 3 sec. C6-NBD-dihydro-ceramide and C6-NBD-dihydro-galactosylceramide were co-eluted into the mass spectrometer using acetonitrile containing 0.1% formic acid at the flow rate of 1.0 mL/min for 3 sec. The total cycle time of one injection was 8 secs. The MS/MS detection was performed in ESI negative mode. The mass transition of C6-NBD-dihydro-galactosylceramide was m/z 752.6→678.6 using a −40 V collision energy, the mass transition of C6-NBD-dihydro-ceramide was m/z 590.6→115.8 using a −40 V collision energy and the mass transition of N-docdecanoyl-NBD-galactosylceramide was m/z 820.9→746.3 using a −45 V collision energy.
The C6-NBD-dihydro-galactosylceramide reading was normalized first by dividing the peak area of C6-NBD-dihydro-galactosylceramide by the peak area of the internal standard, N-docdecanoyl-NBD-galactosylceramide. IC50 values (see Table 1, where data ranges with one asterix (*) correspond to analysis using the RapidFire/MS/MS method, and data ranges with two asterixes (**) correspond to analysis using the RapidFire/MS/MS method with 0.01% Tween added) were generated from sigmoidal dose-response curves (variable slope) with GraphPad Prism software (GraphPad Software, Inc., San Diego, Calif.) using the normalized peak areas of C6-NBD-dihydro-galactosylceramide or the percent inhibition of C6-NBD-dihydro-galactosylceramide accumulation relative to DMSO control. […]

SMILES	pIC50
NC1CCN(C(=O)[C@@H](NC(=O)C(=O)c2ccc(OCC3CCCCC3)cc2)C(F)(F)c2ccc(-c3ccc(Cl)cc3)cc2)CC1 [Compound 134-1, (R)—N-(3-(4-aminopiperidin-1-yl)-1-(4′-chloro-[1,1′-biphenyl]-4-yl)-1,1-difluoro-3-oxopropan-2-yl)-2-(4-(cyclohexylmethoxy)phenyl)-2-oxoacetamide trifluoroacetate]	4.52 to 5.00
NC1CC2CCC(C1)N2C(=O)[C@H](NS(=O)(=O)c1ccc2cc(OC3CCCCC3)ccc2c1)C(F)(F)c1ccc(Br)cc1 (stereo partly drawn) [Compound 33-2, N-((2S)-3-(3-amino-8-azabicyclo[3.2.1]octan-8-yl)-1-(4-bromophenyl)-1,1-difluoro-3-oxopropan-2-yl)-6-(cyclohexyloxy)naphthalene-2-sulfonamide trifluoroacetate]	4.00 to 4.52
CN([C@@H](C(=O)N1C2CCC1CC(N)C2)C(F)(F)c1ccc(Br)cc1)S(=O)(=O)c1ccc2c(cnn2CC2CCCC2)c1 (stereo partly drawn) [Compound 75-2, N-((2S)-3-(3-amino-8-azabicyclo[3.2.1]octan-8-yl)-1-(4-bromophenyl)-1,1-difluoro-3-oxopropan-2-yl)-1-(cyclopentylmethyl)-N-methyl-1H-indazole-5-sulfonamide]	4.00 to 4.52
CN([C@H](C(=O)N1C2CCC1CC(N)C2)C(F)(F)c1ccc(Br)cc1)S(=O)(=O)c1ccc2c(cnn2CC2CCCC2)c1 (stereo partly drawn) [Compound 75-1, N-((2R)-3-(3-amino-8-azabicyclo[3.2.1]octan-8-yl)-1-(4-bromophenyl)-1,1-difluoro-3-oxopropan-2-yl)-1-(cyclopentylmethyl)-N-methyl-1H-indazole-5-sulfonamide]	5.00 to 6.00
CN([C@H](C(=O)N1CCC(N)CC1)C(F)(F)c1ccc(Oc2ccccc2)cc1)S(=O)(=O)c1ccc(OCC2CCCCC2)cc1 [Compound 64-1, (R)—N-(3-(4-aminopiperidin-1-yl)-1,1-difluoro-3-oxo-1-(4-phenoxyphenyl)propan-2-yl)-4-(cyclohexylmethoxy)-N-methylbenzenesulfonamide]	5.00 to 6.00
CCCCOc1cccc(C(F)(F)[C@@H](NS(=O)(=O)c2ccc3cc(OC4CCCC4)ccc3c2)C(=O)N2C3CCC2CC(N)C3)c1 (stereo partly drawn) [Compound 90-2, N-((2S)-3-(3-amino-8-azabicyclo[3.2.1]octan-8-yl)-1-(3-butoxyphenyl)-1,1-difluoro-3-oxopropan-2-yl)-6-(cyclopentyloxy)naphthalene-2-sulfonamide trifluoroacetate]	5.00 to 6.00
NC1CC2CCC(C1)N2C(=O)[C@@H](NS(=O)(=O)c1ccc(OCC2CCCCC2)cc1)C(F)(F)c1ccc(-c2ccc(Cl)cc2)cc1 (stereo partly drawn) [Compound 50-1, N-((2R)-3-(3-amino-8-azabicyclo[3.2.1]octan-8-yl)-1-(4′-chloro-[1,1′-biphenyl]-4-yl)-1,1-difluoro-3-oxopropan-2-yl)-4-(cyclohexylmethoxy) benzenesulfonamide trifluoroacetate]	> 6.00
NC1CCN(C(=O)[C@@H](NS(=O)(=O)c2ccc(OCC3CCCCC3)cc2)C(F)(F)c2ccc(Oc3ccccc3)cc2)CC1 [Compound 63-1, (R)—N-(3-(4-aminopiperidin-1-yl)-1,1-difluoro-3-oxo-1-(4-phenoxyphenyl)propan-2-yl)-4-(cyclohexylmethoxy)benzenesulfonamide trifluoroacetate]	5.00 to 6.00
NC1CC2CCC(C1)N2C(=O)[C@H](NC(=O)[C@@H](O)c1ccc2cc(OC3CCCC3)ccc2c1)C(F)(F)c1ccc(-c2ccc(Cl)cc2)cc1 (stereo partly drawn) [Compound 136-2, (2S)—N-((2S)-3-(3-amino-8-azabicyclo[3.2.1]octan-8-yl)-1-(4′-chloro-[1,1′-biphenyl]-4-yl)-1,1-difluoro-3-oxopropan-2-yl)-2-(6-(cyclopentyloxy)naphthalen-2-yl)-2-hydroxyacetamide trifluoroacetate]	4.00 to 4.52
NC1CC2CCC(C1)N2C(=O)[C@@H](NS(=O)(=O)c1ccc2cc(OC3CCCC3)ccc2c1)C(F)(F)c1ccc(-c2ccc(F)cc2)cc1 (stereo partly drawn) [Compound 56-1, N-((2R)-3-(3-amino-8-azabicyclo[3.2.1]octan-8-yl)-1,1-difluoro-1-(4′-fluoro-[1,1′-biphenyl]-4-yl)-3-oxopropan-2-yl)-6-(cyclopentyloxy)naphthalene-2-sulfonamide trifluoroacetate]	> 6.00
NC1CC2CCC(C1)N2C(=O)[C@H](NS(=O)(=O)c1ccc(OCC2CCCC2)cc1)C(F)(F)c1ccc(C(F)(F)F)cc1 (stereo partly drawn) [Compound 60-2, N-((2S)-3-(3-amino-8-azabicyclo[3.2.1]octan-8-yl)-1,1-difluoro-3-oxo-1-(4-(trifluoromethyl)phenyl)propan-2-yl)-4-(cyclopentylmethoxy)benzenesulfonamide]	4.52 to 5.00
CN([C@@H](C(=O)N1C2CCC1CC(N)C2)C(F)(F)c1ccc(OCCN2CCOCC2)cc1)S(=O)(=O)c1ccc2cc(OC3CCCC3)ccc2c1 (stereo partly drawn) [Compound 115-2, N-((2S)-3-(3-amino-8-azabicyclo[3.2.1]octan-8-yl)-1,1-difluoro-1-(4-(2-morpholinoethoxy)phenyl)-3-oxopropan-2-yl)-6-(cyclopentyloxy)-N-methylnaphthalene-2-sulfonamide]	4.52 to 5.00
NC1CC2CCC(C1)N2C(=O)[C@@H](NS(=O)(=O)c1ccc2cc(OC3CCCC3)ccc2c1)C(F)(F)c1ccc(I)cc1 (stereo partly drawn) [Compound 42-1, N-((2R)-3-(3-amino-8-azabicyclo[3.2.1]octan-8-yl)-1,1-difluoro-1-(4-iodophenyl)-3-oxopropan-2-yl)-6-(cyclopentyloxy)naphthalene-2-sulfonamide trifluoroacetate]	> 6.00
NC1CC2CCC(C1)N2C(=O)[C@H](NS(=O)(=O)c1ccc(OCC2CCCCC2)cc1)C(F)(F)c1ccc(-c2ccccc2)cc1 (stereo partly drawn) [Compound 35-2, N-((2S)-1-([1,1′-biphenyl]-4-yl)-3-(3-amino-8-azabicyclo[3.2.1]octan-8-yl)-1,1-difluoro-3-oxopropan-2-yl)-4-(cyclohexylmethoxy) benzenesulfonamide trifluoroacetate]	4.52 to 5.00
CN([C@@H](C(=O)N1C2CCC1CC(N)C2)C(F)(F)c1ccc(Cl)cc1)S(=O)(=O)c1ccc2cc(OC3CCCC3)ccc2c1 (stereo partly drawn) [Compound 52-2, N-((2S)-3-(3-amino-8-azabicyclo[3.2.1]octan-8-yl)-1-(4-chlorophenyl)-1,1-difluoro-3-oxopropan-2-yl)-6-(cyclopentyloxy)-N-methylnaphthalene-2-sulfonamide]	4.00 to 4.52
